Assay results: ChEMBL document CHEMBL6134930, “Discovery of AB801, a Potent and Selective Inhibitor of AXL Receptor Tyrosine Kinase for Use in Cancer Therapy” (J Med Chem, 2025)

Experiments:
[1] = Metabolic stability in rat hepatocytes assessed as intrinsic clearance measured per 10^6 cells; assay type: ADME, cell-based, Hepatocyte; settings: read-out: CLH
[2] = target: hERG (KCNH2) (Homo sapiens, UniProt Q12809); experiment: Inhibition of hERG at 10 uM by high throughput cell based patch clamp assay; assay type: toxicity
[3] = target: CYP2C19 (Homo sapiens, UniProt P33261); experiment: Time dependent inhibition of CYP2C19 (unknown origin) at 30 uM measured after 30 mins relative to control; assay type: ADME; settings: read-out: TDI
[4] = Metabolic stability in human hepatocytes assessed as intrinsic clearance measured per 10^6 cells; assay type: ADME, cell-based, Hepatocyte; settings: read-out: CLH
[5] = target: T1, CYP1A2 (Homo sapiens, UniProt P05177); experiment: Time dependent inhibition of CYP1A2 (unknown origin) at 30 uM measured after 30 mins relative to control; assay type: ADME; settings: read-out: TDI
T1 sequence (P05177 whole entry): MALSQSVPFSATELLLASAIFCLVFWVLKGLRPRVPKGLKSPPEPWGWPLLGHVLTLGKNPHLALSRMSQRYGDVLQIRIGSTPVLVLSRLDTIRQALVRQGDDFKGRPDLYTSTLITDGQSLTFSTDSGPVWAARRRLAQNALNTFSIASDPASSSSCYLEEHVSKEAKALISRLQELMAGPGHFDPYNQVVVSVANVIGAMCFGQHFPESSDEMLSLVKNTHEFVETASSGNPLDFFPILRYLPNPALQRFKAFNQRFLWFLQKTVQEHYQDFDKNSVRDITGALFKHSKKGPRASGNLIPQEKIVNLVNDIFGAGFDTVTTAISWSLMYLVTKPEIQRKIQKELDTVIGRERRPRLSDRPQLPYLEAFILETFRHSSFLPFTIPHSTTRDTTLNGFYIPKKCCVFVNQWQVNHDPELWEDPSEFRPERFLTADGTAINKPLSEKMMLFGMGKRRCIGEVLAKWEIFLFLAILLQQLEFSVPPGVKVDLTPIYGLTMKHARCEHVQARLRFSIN

[6] = target: T2, CYP3A4 (Homo sapiens, UniProt P08684); experiment: Time dependent inhibition of CYP3A4 (unknown origin) using midazolam as substrate at 30 uM measured after 30 mins relative to control; assay type: ADME; settings: probe midazolam, read-out: TDI
[7] = Efflux ratio in human Caco-2 cells; assay type: ADME, cell-based
[8] = Apparent permeability of compound from apical to basolateral side in human Caco-2 cells; assay type: ADME, cell-based; settings: read-out: permeability
[9] = target: T3, Tyrosine-protein kinase receptor UFO (Homo sapiens, UniProt P30530); experiment: Inhibition of human AXL measured after 150 mins by ATP-competitive HTRF based biochemical assay
T3 sequence (P30530 whole entry): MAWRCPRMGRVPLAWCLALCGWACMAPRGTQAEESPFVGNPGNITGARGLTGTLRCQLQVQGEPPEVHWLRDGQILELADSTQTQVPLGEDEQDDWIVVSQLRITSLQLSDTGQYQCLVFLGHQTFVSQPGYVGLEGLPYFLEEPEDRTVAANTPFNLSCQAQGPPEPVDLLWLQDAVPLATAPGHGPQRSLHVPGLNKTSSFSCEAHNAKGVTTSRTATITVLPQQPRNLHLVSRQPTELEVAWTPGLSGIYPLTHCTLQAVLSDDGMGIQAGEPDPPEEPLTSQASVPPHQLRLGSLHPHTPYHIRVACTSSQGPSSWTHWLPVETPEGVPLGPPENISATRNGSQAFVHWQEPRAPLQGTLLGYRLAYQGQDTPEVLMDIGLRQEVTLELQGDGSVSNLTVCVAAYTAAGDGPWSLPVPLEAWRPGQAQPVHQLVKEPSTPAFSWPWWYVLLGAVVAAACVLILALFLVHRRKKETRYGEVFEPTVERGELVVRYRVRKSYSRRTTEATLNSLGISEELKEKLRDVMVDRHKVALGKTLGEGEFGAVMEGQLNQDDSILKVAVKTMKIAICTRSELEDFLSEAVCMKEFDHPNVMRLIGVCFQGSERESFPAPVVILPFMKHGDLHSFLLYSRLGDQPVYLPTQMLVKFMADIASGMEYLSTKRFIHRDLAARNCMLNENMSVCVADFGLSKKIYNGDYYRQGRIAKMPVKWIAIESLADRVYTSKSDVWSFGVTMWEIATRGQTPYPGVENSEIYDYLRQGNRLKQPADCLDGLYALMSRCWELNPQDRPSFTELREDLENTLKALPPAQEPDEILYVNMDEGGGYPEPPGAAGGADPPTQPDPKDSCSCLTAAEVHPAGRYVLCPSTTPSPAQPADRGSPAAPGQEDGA

[10] = AUCinf in Sprague-Dawley rat at 2 mg/kg, po measured up to 8 hrs by LC-MS/MS analysis; assay type: ADME, organism-based; settings: in vivo
[11] = target: CYP2C9 (Homo sapiens, UniProt P11712); experiment: Time dependent inhibition of CYP2C9 (unknown origin) at 30 uM measured after 30 mins relative to control; assay type: ADME; settings: read-out: TDI
[12] = Clearance in cynomolgus monkey at 0.5 mg/kg, iv measured up to 24 hrs by LC-MS/MS analysis; assay type: ADME, organism-based, Macaca fascicularis; settings: in vivo
[13] = target: CYP2D6 (Homo sapiens, UniProt P10635); experiment: Time dependent inhibition of CYP2D6 (unknown origin) at 30 uM measured after 30 mins relative to control; assay type: ADME; settings: read-out: TDI
[14] = target: T3, Tyrosine-protein kinase receptor UFO; experiment: Inhibition of autophosphorylation AXL (unknown origin) expressed in HEK293 cells assessed as NanoLuc activity associated with phosphorylated proteins measured after 1 hr incubation by intracellular pAXL-ELISA; assay type: cell-based
[15] = Clearance in Beagle dog at 0.5 mg/kg, iv measured up to 24 hrs by LC-MS/MS analysis; assay type: ADME, organism-based, Canis lupus familiaris; settings: in vivo
[16] = Clearance in CD-1 mouse at 0.5 mg/kg, iv measured up to 24 hrs by LC-MS/MS analysis; assay type: ADME, organism-based; settings: in vivo
[17] = target: T4, CYP2B6 (Homo sapiens, UniProt P20813); experiment: Time dependent inhibition of CYP2B6 (unknown origin) at 30 uM measured after 30 mins relative to control; assay type: ADME; settings: read-out: TDI
T4 sequence (P20813 whole entry): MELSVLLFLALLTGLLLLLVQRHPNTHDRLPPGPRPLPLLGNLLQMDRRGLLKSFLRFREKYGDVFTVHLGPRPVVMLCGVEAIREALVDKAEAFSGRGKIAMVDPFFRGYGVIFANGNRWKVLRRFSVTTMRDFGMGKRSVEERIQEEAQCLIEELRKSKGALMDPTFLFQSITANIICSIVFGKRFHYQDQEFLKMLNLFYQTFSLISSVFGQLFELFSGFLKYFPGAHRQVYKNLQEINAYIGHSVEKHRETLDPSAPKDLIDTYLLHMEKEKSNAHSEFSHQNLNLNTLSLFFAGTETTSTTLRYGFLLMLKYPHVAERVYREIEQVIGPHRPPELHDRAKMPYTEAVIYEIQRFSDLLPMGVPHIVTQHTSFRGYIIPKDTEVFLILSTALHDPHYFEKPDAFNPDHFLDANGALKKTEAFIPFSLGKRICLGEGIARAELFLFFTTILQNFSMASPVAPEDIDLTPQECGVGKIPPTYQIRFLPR

[18] = target: T2, CYP3A4; experiment: Time dependent inhibition of CYP3A4 (unknown origin) using testosterone as substrate at 30 uM measured after 30 mins relative to control; assay type: ADME; settings: probe testosterone, read-out: TDI
[19] = target: T5, CYP2C8 (Homo sapiens, UniProt P10632); experiment: Time dependent inhibition of CYP2C8 (unknown origin) at 30 uM measured after 30 mins relative to control; assay type: ADME; settings: read-out: TDI
T5 sequence (P10632 whole entry): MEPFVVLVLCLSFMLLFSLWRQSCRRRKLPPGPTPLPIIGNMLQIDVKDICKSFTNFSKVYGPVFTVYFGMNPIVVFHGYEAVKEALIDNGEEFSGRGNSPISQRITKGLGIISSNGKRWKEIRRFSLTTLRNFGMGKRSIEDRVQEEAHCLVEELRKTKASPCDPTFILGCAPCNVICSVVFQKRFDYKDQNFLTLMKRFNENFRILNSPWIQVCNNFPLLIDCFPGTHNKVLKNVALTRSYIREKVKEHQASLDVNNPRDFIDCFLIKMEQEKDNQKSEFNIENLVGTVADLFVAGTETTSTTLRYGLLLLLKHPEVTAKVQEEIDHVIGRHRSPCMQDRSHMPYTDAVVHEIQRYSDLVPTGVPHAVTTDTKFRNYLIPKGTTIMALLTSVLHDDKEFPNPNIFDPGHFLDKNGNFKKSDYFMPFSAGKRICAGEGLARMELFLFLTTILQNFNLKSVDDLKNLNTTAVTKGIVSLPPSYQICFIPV

[20] = Clearance in Sprague-Dawley rat at 0.5 mg/kg, iv measured up to 24 hrs by LC-MS/MS analysis; assay type: ADME, organism-based; settings: in vivo

T2 sequence (P08684 whole entry): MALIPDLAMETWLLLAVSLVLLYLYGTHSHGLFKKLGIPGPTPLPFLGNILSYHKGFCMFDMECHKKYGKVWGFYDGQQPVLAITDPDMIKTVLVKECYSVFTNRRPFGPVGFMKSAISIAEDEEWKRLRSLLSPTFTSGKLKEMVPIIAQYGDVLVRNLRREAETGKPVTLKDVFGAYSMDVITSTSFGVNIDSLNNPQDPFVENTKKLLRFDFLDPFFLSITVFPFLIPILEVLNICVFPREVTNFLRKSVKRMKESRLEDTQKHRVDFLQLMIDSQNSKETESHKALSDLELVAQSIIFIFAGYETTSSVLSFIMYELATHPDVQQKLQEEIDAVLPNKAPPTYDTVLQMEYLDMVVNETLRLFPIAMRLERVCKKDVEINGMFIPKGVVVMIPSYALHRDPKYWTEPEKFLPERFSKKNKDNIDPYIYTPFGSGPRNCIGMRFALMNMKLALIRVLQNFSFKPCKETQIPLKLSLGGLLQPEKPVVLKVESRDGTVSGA
Chain of CYP2C9 (P11712 whole entry): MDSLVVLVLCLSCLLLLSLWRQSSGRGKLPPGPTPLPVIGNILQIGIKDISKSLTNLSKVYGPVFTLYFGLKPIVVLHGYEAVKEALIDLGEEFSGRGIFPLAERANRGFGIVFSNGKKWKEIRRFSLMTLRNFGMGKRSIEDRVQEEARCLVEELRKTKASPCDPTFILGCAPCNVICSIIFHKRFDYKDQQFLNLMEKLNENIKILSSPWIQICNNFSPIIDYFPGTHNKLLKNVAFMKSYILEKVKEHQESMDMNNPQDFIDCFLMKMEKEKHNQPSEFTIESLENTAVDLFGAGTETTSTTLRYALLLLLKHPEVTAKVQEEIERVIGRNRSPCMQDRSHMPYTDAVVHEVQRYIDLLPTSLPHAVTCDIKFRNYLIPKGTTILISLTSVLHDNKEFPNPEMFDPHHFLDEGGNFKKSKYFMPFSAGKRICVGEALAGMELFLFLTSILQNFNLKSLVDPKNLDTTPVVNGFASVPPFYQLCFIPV
Chain of CYP2D6 (P10635 whole entry): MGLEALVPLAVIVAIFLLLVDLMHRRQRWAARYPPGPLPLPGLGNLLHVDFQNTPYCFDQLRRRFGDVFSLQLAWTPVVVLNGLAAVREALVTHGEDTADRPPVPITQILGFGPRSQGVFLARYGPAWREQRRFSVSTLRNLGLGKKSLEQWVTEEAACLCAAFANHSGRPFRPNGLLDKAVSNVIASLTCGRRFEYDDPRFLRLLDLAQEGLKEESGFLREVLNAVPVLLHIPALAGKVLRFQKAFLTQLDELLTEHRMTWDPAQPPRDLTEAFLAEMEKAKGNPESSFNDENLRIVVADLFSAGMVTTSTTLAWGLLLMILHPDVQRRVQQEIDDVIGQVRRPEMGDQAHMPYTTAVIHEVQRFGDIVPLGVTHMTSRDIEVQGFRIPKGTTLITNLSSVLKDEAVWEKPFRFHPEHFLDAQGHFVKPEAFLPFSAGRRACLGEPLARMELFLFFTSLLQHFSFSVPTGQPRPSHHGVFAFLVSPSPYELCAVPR
Chain of CYP2C19 (P33261 whole entry): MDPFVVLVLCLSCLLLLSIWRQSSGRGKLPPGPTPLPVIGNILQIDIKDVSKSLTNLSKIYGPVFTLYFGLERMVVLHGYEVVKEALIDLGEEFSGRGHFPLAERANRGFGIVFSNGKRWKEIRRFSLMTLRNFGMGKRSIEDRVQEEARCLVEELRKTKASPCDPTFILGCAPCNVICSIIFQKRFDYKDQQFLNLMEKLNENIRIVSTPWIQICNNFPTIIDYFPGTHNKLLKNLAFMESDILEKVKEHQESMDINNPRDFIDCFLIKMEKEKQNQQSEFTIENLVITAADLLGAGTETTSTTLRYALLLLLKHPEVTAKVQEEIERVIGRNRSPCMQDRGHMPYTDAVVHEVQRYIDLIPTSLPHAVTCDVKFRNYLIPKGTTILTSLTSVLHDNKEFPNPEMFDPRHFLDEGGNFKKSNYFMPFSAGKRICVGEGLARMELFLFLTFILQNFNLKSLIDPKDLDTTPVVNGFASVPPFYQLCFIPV
Chain of hERG (KCNH2) (Q12809 whole entry): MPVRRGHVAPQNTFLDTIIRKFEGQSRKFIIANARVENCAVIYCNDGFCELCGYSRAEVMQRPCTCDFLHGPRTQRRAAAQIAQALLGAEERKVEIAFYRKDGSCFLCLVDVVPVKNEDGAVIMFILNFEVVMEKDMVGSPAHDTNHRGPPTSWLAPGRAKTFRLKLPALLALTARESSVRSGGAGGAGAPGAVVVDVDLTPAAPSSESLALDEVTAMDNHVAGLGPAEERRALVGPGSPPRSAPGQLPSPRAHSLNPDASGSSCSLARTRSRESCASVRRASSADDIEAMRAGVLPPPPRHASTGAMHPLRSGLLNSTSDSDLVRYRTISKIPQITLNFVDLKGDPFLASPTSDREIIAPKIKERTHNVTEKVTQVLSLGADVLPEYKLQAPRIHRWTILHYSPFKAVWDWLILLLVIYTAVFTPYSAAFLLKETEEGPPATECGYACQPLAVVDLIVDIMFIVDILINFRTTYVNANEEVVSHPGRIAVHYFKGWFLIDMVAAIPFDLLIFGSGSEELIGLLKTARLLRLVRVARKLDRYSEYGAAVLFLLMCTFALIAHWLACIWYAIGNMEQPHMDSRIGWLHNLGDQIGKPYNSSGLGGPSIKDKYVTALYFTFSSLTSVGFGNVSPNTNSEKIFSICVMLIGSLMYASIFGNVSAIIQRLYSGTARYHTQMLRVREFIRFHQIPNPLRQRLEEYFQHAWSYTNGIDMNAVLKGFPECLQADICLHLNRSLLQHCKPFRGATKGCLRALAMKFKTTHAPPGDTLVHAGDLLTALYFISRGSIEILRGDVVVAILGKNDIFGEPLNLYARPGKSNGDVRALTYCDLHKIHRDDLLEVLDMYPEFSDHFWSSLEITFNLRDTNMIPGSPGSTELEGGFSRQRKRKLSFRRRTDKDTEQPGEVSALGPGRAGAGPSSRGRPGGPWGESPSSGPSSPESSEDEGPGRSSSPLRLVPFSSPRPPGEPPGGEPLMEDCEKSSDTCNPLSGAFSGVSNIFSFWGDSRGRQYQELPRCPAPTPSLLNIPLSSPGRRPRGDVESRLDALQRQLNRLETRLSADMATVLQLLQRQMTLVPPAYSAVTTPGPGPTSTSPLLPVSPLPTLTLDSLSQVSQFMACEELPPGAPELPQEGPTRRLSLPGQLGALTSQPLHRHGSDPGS

Cc1cccnc1-c1ccc(-c2n[nH]c3ncc(-c4ccc5c(c4)CC[C@@H](N4C6COCC4C6)CC5)cc23)cc1
hepatocyte CLint [1]: 2.7 µL/min/1e6 cells | inhibition at 10 µM [2]: 23% | inhibition at 0.5 h, 30 µM [3]: 23% | hepatocyte CLint [4]: < 2.7 µL/min/1e6 cells | inhibition at 0.5 h, 30 µM [5]: 24% | inhibition at 0.5 h, 30 µM [6]: 31% | efflux ratio [7]: 1 | Papp A→B [8]: 0.96 ×10⁻⁶ cm/s | IC50 [9]: 2.4 nM | AUC(0-inf) [10]: 3000 ng·h/mL | inhibition at 0.5 h, 30 µM [11]: 0% | clearance [12]: 6.83 mL/min/kg | inhibition at 0.5 h, 30 µM [13]: 2.4% | IC50 [14]: 65 nM | clearance [15]: 25 mL/min/kg | clearance [16]: 5.33 mL/min/kg | inhibition at 0.5 h, 30 µM [17]: 22% | inhibition at 0.5 h, 30 µM [18]: 50% | inhibition at 0.5 h, 30 µM [19]: 14% | clearance [20]: 2.67 mL/min/kg
